Test results taken from paper PMC12844124, “Synthesis and Study of Substituted Chalcones Combined with Fluoroazobenzenes—New Photoswitches for Application in Biological Systems” (Molecules, 2026).

What was measured:
PC-3 cells = experiment: MTS cell proliferation assay, PC-3; type: cell-based, human; settings: for IC50: Homo sapiens
Method: Human BJ fibroblasts (American Type Cell Culture Collection, Manassas, VA, USA, CRL-2522) and human prostate cancer cell line PC-3 (American Type Cell Culture Collection, Manassas, VA, USA, CRL-1435), derived from bone metastases, were routinely grown in […]) Medium (ThermoFisher, Waltham, MA, USA, 21127-022) and supplemented with heat-inactivated 10% Fetal Bovine Serum (Biowest, France, […]) and 1% antibiotic solution (Biowest, Nuaillé, France, L0022), in a humidified 5% CO2 atmosphere at 37 °C. Cells were used between 3 and 20 passages. The 96-well plates were prepared by seeding 5 × 10^3 or 2.5 × 10^3 cells per well, for 24 and 48 h treatments, respectively, with at least five technical and two biological repeats. […] The cells were treated with either the Z conformer of 17j, with continuous illumination with 525 nm light, or the E conformer. The Z conformer was prepared by illuminating its DMSO solution with 525 nm light overnight. The cell proliferation was analyzed with CellTiter Aqueous One Solution Cell Proliferation MTS (3-(4,5-dimethylthiazol-2-yl)-5-(3-carboxymethoxyphenyl)-2-(4-sulfophenyl)-2H-tetrazolium) Assay (Promega, Madison, WI, USA, G5430) after 24 or 48 h of treatment. The absorbance was measured at 490 and 670 nm with FLUOStar Omega plate reader (BMG LABTECH GmbH, Ortenberg, Germany). The statistical analysis was performed within R 4.5.1 project. […] The log-logistic four parametric model (4PL), with the lower limit boundary set to 0 and group fitting, was used, as available in the drc package, to fit cell proliferation data. […] The assessment metrics for model goodness of fit were performed with functions available in the drc package and with custom ones. When appropriate, the delta method was applied to obtain error of central tendency. To assess the goodness of fit for each of the biological replicates, deviance R^2 (DR^2) was calculated and assessed. […] The DR^2 was calculated according to the following Equation: 1 - (Dres/Dnull), where Dres-residual deviance and Dnull-null deviance (deviance of the model with mean as a predicted value). The null hypothesis was assessed with the two-way ANOVA with Tukey's post hoc test for multiple comparisons or with the two-way t-test when only two groups were compared. The differences in the cell cycle percentages were assessed with the two-way ANOVA with Tukey's post hoc test.

BJ fibroblasts = experiment: Cell cycle analysis by flow cytometry, BJ fibroblasts; type: cell-based, human; settings: Z conformer, concentration not given
Method: The BJ or PC-3 cells were treated as described previously, with the exception that 0.15 × 10^6 cells per well were seeded in 6-well plates. After 24 h of treatment, cells were harvested by trypsinization (Biowest, Nuaillé, France, L0931), washed twice, resuspended in PBS, and added to cold 70% ethanol for overnight fixation at −20 °C. Subsequently, cells were centrifuged and resuspended in PBS containing 5 µg/mL of propidium iodide in PBS (Sigma-Aldrich, St. Louis, MO, USA, 4170), 0.1% Triton X-100, and 10 µg/mL of DNAse-free RNAse (A&A Biotechnology, Gdansk, Poland, 1006-10) in the dark for 4 h at 37 °C. FACS analysis was performed using a FACSCanto II flow cytometer and FACSDiva, version 9.0 software (BD Biosciences, San Jose, CA, USA). Flow rate was set to about 1000 events/cells per second. Signals from at least 10,000 events per sample were captured. The percentages of PC-3 cells in cell cycle phases (G0/G1, S, and G2/M) were determined using ModFit LT 4.1.7 (Verity Software House, Topsham, ME, USA).

[1] = Photostationary state (PSS) composition by 19F NMR; type: physicochemical; settings: irradiation 525 nm, DMSO-d6
Description: Azo compounds have been applied in various fields due to their ability to undergo structural changes, with one of the most interesting applications being the direct conversion of light into mechanical energy. However, azobenzenes generally face two main limitations that hinder their practical use in biological and materials sciences. The first is the need for UV light to induce the E→Z isomerization through π→π* excitation, which can potentially interfere with and damage the surrounding environment. The second limitation is the typically incomplete reverse Z→E photoisomerization, which is induced by irradiation in the visible region. In this region, the n→π* bands of the E and Z isomers largely overlap, making it difficult to achieve E-rich photostationary states (PSSs) after back-switching. These limitations can be overcome by modifying azobenzene in such a way that the n→π* bands of the E and Z isomers are sufficiently separated. If the separation is large enough, the two n→π* bands can be distinct, allowing visible light to selectively isomerize both isomers with high to complete E/Z photoconversions. We are looking for switches that operate within the visible light range of 380–750 nm, which is harmless. Fluorine-substituted azobenzenes are well-suited for designing visible-light-responsive systems, offering stable and bidirectional photoconversions along with tissue-compatible properties. We confirmed that the compounds we synthesized successfully dock with tubulin. In the next step, we tested whether the added azo compound would meet our expectations as a visible light switch. For this purpose, we used NMR spectroscopy. We measured ^19F spectra of (17a–17c, 17e–17g, and 17i–17l) at nine wavelengths from 390 nm to 610 nm to check which wavelengths produce the most Z isomer after exposure (see Section S4.2 in Supplementary Materials). We selected DMSO as the solvent due to its ability to dissolve both polar and nonpolar molecules, which is essential for the analytical methods employed in this study. Its intermediate polarity also makes it a good surrogate for both organic and aqueous solvents. Additionally, DMSO is commonly used for preparing stock solutions, which are then illuminated and diluted into aqueous systems for assessing biological activity. […]
Figure 2 (a) Photostationary state (PSS) compositions for chalcones (17a–17c, 17e–17g, and 17i–17l) determined by ^19F NMR analysis (c ≈ 100 mM in DMSO-d6), presented in a bar chart; (b) representative multiple photoswitching rounds of 60 µM of (17j) in DMSO by pulsed green (525 nm) and blue (430 nm) light illumination. The photochemical stability of the drug is analyzed via repeated cycles of irradiation (software: Microsoft Excel).

IC50 difference between PC-3 and BJ cells (PC-3 cells; E conformer): 2.2 fold
IC50 (PC-3 cells; PC-3, 24 h, E conformer, 24 h incubation): 14.6 ± 1 µM
IC50 (PC-3 cells; PC-3, 24 h, Z conformer, 525 nm illumination, 24 h treatment): 12 ± 4.42 µM
IC50 (PC-3 cells; PC-3, 48 h, E conformer, 48 h incubation): 5.8 ± 0.8 µM
IC50 (PC-3 cells; PC-3, 48 h, Z conformer, 525 nm illumination, 48 h treatment): 4.75 ± 1 µM
share of the Z configuration (PSS) [1]: 73.2%
Compound: COc1cc(/C=C/C(=O)c2cccc(/N=N/c3c(F)cccc3F)c2)cc(OC)c1 [Compound 17j]
normalized asymptote (normalized limit) (PC-3 cells; E conformer, 24 h): 50.0 ± 9.9%
normalized asymptote (normalized limit) (PC-3 cells; E conformer, 48 h): 15.0 ± 0.2%
normalized asymptote (ratio of lower to upper asymptote) (PC-3 cells; Z conformer, 24 h): 44.9 ± 3.7%
normalized asymptote (ratio of lower to upper asymptote) (PC-3 cells; Z conformer, 48 h): 0.9 ± 0.9%
cells undergoing the G0/G1 phase (BJ fibroblasts; decrease from 86.4): 51.5%
cells in the S phase (BJ fibroblasts; increase from 0.4): 8%
cells in the G2/M phase (BJ fibroblasts; increase from 11.9): 15.6%
